# From ChEMBL document CHEMBL1201862, “PubChem BioAssay data set” (2004)
#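 Cells were grown in 96-well plates and exposed to each compound for 48 hours at five concentrations; endpoints were interpolated linearly between bracketing concentrations, or set to the highest concentration if not reached. Abbreviation: GI50, concentration required for 50% inhibition of growth.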 Active and inactive are the calls of the source. Cut-off read from the data, not from the text of the source: active = GI50 up to about 1.1 µM and inactive = higher.
# Tests used:
# Assay in all cases: growth of human tumour cells (NCI), 48 h
# RXF 393 = test system: RXF 393
# RPMI-8226 = test system: RPMI-8226
# SNB-78 = test system: SNB-78
# EKVX = test system: EKVX
# TK-10 = test system: TK-10
# SK-MEL-5 = test system: SK-MEL-5
# A549 = test system: A549
# K562 = test system: K562
# IGROV-1 = test system: IGROV-1
# NCI-H460 = test system: NCI-H460
# HOP-62 = test system: HOP-62
# HL-60 = test system: HL-60
# U-251 = test system: U-251
# HT-29 = test system: HT-29
# SR = test system: SR
# NCI/ADR-RES = test system: NCI/ADR-RES
# DU-145 = test system: DU-145
# PC-3 = test system: PC-3
# MDA-N = test system: MDA-N
# Hs-578T = test system: Hs-578T
SMILES,GI50 (RXF 393),GI50 (RPMI-8226),GI50 (SNB-78),GI50 (EKVX),GI50 (TK-10),GI50 (SK-MEL-5),GI50 (A549),GI50 (K562),GI50 (IGROV-1),GI50 (NCI-H460),GI50 (HOP-62),GI50 (HL-60),GI50 (U-251),GI50 (HT-29),GI50 (SR),GI50 (NCI/ADR-RES),GI50 (DU-145),GI50 (PC-3),GI50 (MDA-N),GI50 (Hs-578T)
O=C1CCSC2=C1SCc1sccc12,> 100 µM (inactive),79.3 µM (inactive),> 100 µM (inactive),93.5 µM (inactive),> 100 µM (inactive),> 100 µM (inactive),> 100 µM (inactive),> 100 µM (inactive),> 100 µM (inactive),> 100 µM (inactive),> 100 µM (inactive),> 100 µM (inactive),,,,,,,,
CN(C)NC(=S)NC12CC3CC(CC(C3)C1)C2,> 100 µM (inactive),,> 100 µM (inactive),> 100 µM (inactive),> 100 µM (inactive),> 100 µM (inactive),> 100 µM (inactive),> 100 µM (inactive),> 100 µM (inactive),> 100 µM (inactive),> 100 µM (inactive),> 100 µM (inactive),> 100 µM (inactive),> 100 µM (inactive),,,,,,
O=[N+]([O-])C(/C=C(\Cl)[N+](=O)[O-])=C(N1CCCCC1)N1CCCCC1,49.4 µM (inactive),30.8 µM (inactive),,> 100 µM (inactive),> 100 µM (inactive),21.7 µM (inactive),15.6 µM (inactive),27 µM (inactive),21.9 µM (inactive),36.1 µM (inactive),39.6 µM (inactive),20.1 µM (inactive),65 µM (inactive),31.3 µM (inactive),14.1 µM (inactive),26.9 µM (inactive),62.5 µM (inactive),39.6 µM (inactive),22.4 µM (inactive),58.2 µM (inactive)
C[C@@H]1C(=O)O[C@@H]2C[C@@]1(C)[C@@H]1C(=O)C3(O)OC14C2(C)OC(=O)[C@@]4(O)CCC1C3C(O)C=C2CC=CC(=O)[C@@]21C (some centres not stated),13.8 µM (inactive),19.7 µM (inactive),,40.6 µM (inactive),36.9 µM (inactive),33 µM (inactive),40.8 µM (inactive),23.9 µM (inactive),42.3 µM (inactive),29.9 µM (inactive),63.5 µM (inactive),13.4 µM (inactive),30.8 µM (inactive),34 µM (inactive),18.2 µM (inactive),> 100 µM (inactive),30.3 µM (inactive),36 µM (inactive),28.9 µM (inactive),20.9 µM (inactive)
Cc1cc2c(cc1Cl)SSc1cc(Cl)c(C)cc1S(=O)(=O)Nc1nc(N)nn1C(O)n1nc(N)nc1NS2(=O)=O,> 10 µM (inactive),> 10 µM (inactive),,> 10 µM (inactive),> 10 µM (inactive),> 10 µM (inactive),> 10 µM (inactive),> 10 µM (inactive),> 10 µM (inactive),> 10 µM (inactive),> 10 µM (inactive),> 10 µM (inactive),> 10 µM (inactive),> 10 µM (inactive),> 10 µM (inactive),> 10 µM (inactive),> 10 µM (inactive),> 10 µM (inactive),> 10 µM (inactive),> 10 µM (inactive)
CC(=O)Oc1ccc2c(c1)O/C(=C\c1ccc(N(C)C)cc1)C2=O,73.5 µM (inactive),54.6 µM (inactive),,> 100 µM (inactive),> 100 µM (inactive),> 100 µM (inactive),> 100 µM (inactive),27.9 µM (inactive),> 100 µM (inactive),70.1 µM (inactive),> 100 µM (inactive),32.7 µM (inactive),37.7 µM (inactive),> 100 µM (inactive),37.2 µM (inactive),29.6 µM (inactive),> 100 µM (inactive),> 100 µM (inactive),36.4 µM (inactive),21 µM (inactive)
CN(C)c1ccc(/C=C2\C[C@H]3[C@@H]4CCC5=CC(=O)CC[C@]5(C)[C@H]4CC[C@]3(C)C2=O)cc1,99.5 µM (inactive),17.5 µM (inactive),,19.2 µM (inactive),32.5 µM (inactive),12.4 µM (inactive),38 µM (inactive),19 µM (inactive),63.1 µM (inactive),17.4 µM (inactive),> 100 µM (inactive),17.2 µM (inactive),20.2 µM (inactive),23.9 µM (inactive),17.7 µM (inactive),38.3 µM (inactive),76.6 µM (inactive),12.6 µM (inactive),19.5 µM (inactive),38.4 µM (inactive)
Clc1cccc(Cl)c1C(Nc1nncs1)Nc1nncs1,33.5 µM (inactive),46 µM (inactive),,43.9 µM (inactive),23.9 µM (inactive),32.5 µM (inactive),48.9 µM (inactive),31.7 µM (inactive),55.3 µM (inactive),25 µM (inactive),50.4 µM (inactive),17.3 µM (inactive),41.1 µM (inactive),14.1 µM (inactive),4.84 µM (inactive),50 µM (inactive),51.5 µM (inactive),9.35 µM (inactive),9.27 µM (inactive),71.3 µM (inactive)
C=CCCCCNC(=O)C[C@@H]1C2=C(CC[C@H]1O[Si](C)(C)C(C)(C)C)N1C(=O)CCC/C=C\C1C2 (some centres not stated),10.8 µM (inactive),5.71 µM (inactive),,17.3 µM (inactive),16.1 µM (inactive),14.1 µM (inactive),13.1 µM (inactive),5.3 µM (inactive),15.6 µM (inactive),14.3 µM (inactive),17.9 µM (inactive),1.84 µM (inactive),13.5 µM (inactive),12.3 µM (inactive),5.75 µM (inactive),12.2 µM (inactive),15 µM (inactive),12 µM (inactive),16.3 µM (inactive),16.1 µM (inactive)
C[C@H]1O[C@@H](O[C@H]2[C@@H](O)C[C@H](O[C@H]3[C@@H](O)C[C@H](O[C@H]4CC[C@@]5(C)[C@H](CC[C@@H]6[C@@H]5CC[C@]5(C)[C@@H](C7=CC(=O)OC7)[C@@H](O)C[C@]65O)C4)O[C@@H]3C)O[C@@H]2C)C[C@H](O)[C@@H]1O [GITOXIN],0.0991 µM (active),0.197 µM (active),,0.164 µM (active),0.254 µM (active),0.118 µM (active),0.0719 µM (active),0.361 µM (active),0.416 µM (active),0.132 µM (active),0.566 µM (active),0.116 µM (active),0.258 µM (active),0.177 µM (active),0.287 µM (active),0.197 µM (active),0.0822 µM (active),0.259 µM (active),0.266 µM (active),0.562 µM (active)
CC(=O)Nc1cc(CN2CCCCC2)c(O)c2ncccc12,4.29 µM (inactive),12.1 µM (inactive),,30.4 µM (inactive),29 µM (inactive),24.3 µM (inactive),32.9 µM (inactive),21.3 µM (inactive),28.4 µM (inactive),11.7 µM (inactive),27.2 µM (inactive),14.5 µM (inactive),17.1 µM (inactive),44.5 µM (inactive),8.75 µM (inactive),16.2 µM (inactive),6.75 µM (inactive),21.6 µM (inactive),42 µM (inactive),67.3 µM (inactive)
CN1C2CCC1CC(CCOC(c1ccc(F)cc1)c1ccc(F)cc1)C2 (configuration not stated),10.4 µM (inactive),18.6 µM (inactive),,13.9 µM (inactive),15.3 µM (inactive),9.23 µM (inactive),19.4 µM (inactive),12.4 µM (inactive),17.3 µM (inactive),17.5 µM (inactive),16 µM (inactive),16.1 µM (inactive),14.9 µM (inactive),6.73 µM (inactive),14.8 µM (inactive),17.5 µM (inactive),15.7 µM (inactive),15.5 µM (inactive),14.5 µM (inactive),17.8 µM (inactive)
COc1ccc2cc(C(=O)NCCCNC(=O)c3ccc4cc(OC)ccc4c3)ccc2c1,15.8 µM (inactive),> 100 µM (inactive),,49.8 µM (inactive),45.4 µM (inactive),> 100 µM (inactive),> 100 µM (inactive),> 100 µM (inactive),39.4 µM (inactive),> 64.9 µM (inactive),14.7 µM (inactive),> 100 µM (inactive),21.1 µM (inactive),> 100 µM (inactive),> 100 µM (inactive),> 61.5 µM (inactive),> 100 µM (inactive),> 100 µM (inactive),> 100 µM (inactive),34.2 µM (inactive)
CN1CN(c2ccccc2)C2(CCN(CCCC3(c4cccs4)OCCO3)CC2)C1=O,> 100 µM (inactive),> 100 µM (inactive),,> 100 µM (inactive),> 100 µM (inactive),91 µM (inactive),> 100 µM (inactive),> 100 µM (inactive),> 100 µM (inactive),> 100 µM (inactive),> 100 µM (inactive),> 100 µM (inactive),> 100 µM (inactive),36.1 µM (inactive),> 100 µM (inactive),> 100 µM (inactive),> 100 µM (inactive),> 100 µM (inactive),> 100 µM (inactive),> 100 µM (inactive)
CN(CCc1ccc(Cl)c(Cl)c1)CCN(C)CCN1CCCC1,10 µM (inactive),2.86 µM (inactive),,16.6 µM (inactive),13.3 µM (inactive),2.51 µM (inactive),10.5 µM (inactive),2.25 µM (inactive),17.7 µM (inactive),8.93 µM (inactive),15.1 µM (inactive),13.4 µM (inactive),10.4 µM (inactive),2.38 µM (inactive),4.84 µM (inactive),25.4 µM (inactive),25.6 µM (inactive),14.5 µM (inactive),1.79 µM (inactive),17.5 µM (inactive)
